{"source": "patent US4772684A", "about": "“Peptides affecting blood pressure regulation” (Triton Biosciences, Inc., priority 1988, dated 1988)", "key": {"dog femoral vein": {"tested_on": "dog femoral vein", "experiment": "Angiotensin II-caused relaxation of isolated dog venous strips", "format": "cell-based", "conditions": "10^6 M (so in the source); angiotensin II 3×10^-7 M", "experimental": "Peptide 2 of this invention was tested in vitro, using an assay of isolated dog venous strips mounted in a muscle bath. Isolated segments of the dog femoral vein (n=2) were mounted in organ baths for measurement of isometric force generation. The conditions were as described in Example 3. The vascular segments were made to contract in response to prostaglandin F2a (8.5×10^-7 M). After the contraction reached a plateau, angiotensin II (3×10^-7 M) was added to the organ bath and the venous segments relaxed to approximately 50% of the response to prostaglandin F2a. This relaxation response to angiotensin II was inhibited 100% by saralasin ([…]) and by Peptide 2 (10^-5 M)."}, "[1]": {"tested_on": "isolated rabbit aorta strips", "experiment": "Saralasin block of AII contraction and peptide-stimulated contraction in muscle strips", "format": "cell-based", "conditions": "saralasin 10^-8 M; AII 10^-9 M"}, "rat hypertension model": {"tested_on": "rat hypertension model", "experiment": "Blood pressure in anesthetized rats (rat hypertension model)", "format": "in vivo", "conditions": "constant infusion 1 mg/min; angiotensin II 1 ng", "experimental": "Peptide 2 of this invention was tested in vivo, using a rat hypertension model. Adult male rats (n=4) were anesthetized with sodium pentobarbital (50 mg/kg) and the left jugular vein was cannulated for infusion of drugs. Bolus injections of angiotensin II were delivered via the same venous catheter. The right carotid artery was cannulated for measurement of blood pressure. Injection of angiotensin II (1 ng) caused an increase in mean arterial blood pressure (^~ 50 mm Hg)."}}, "data": [{"smiles": "CNCC(=O)N[C@@H](CCCN=C(N)N)C(=O)N[C@H](C(=O)N[C@@H](Cc1ccc(O)cc1)C(=O)N[C@H](C(=O)N[C@@H](Cc1cnc[nH]1)C(=O)N1CCC[C@H]1C(=O)N[C@@H](C)C(=O)O)C(C)C)C(C)C", "note": "[saralasin]", "values": [{"measurement": "Inhibition of relaxation response to angiotensin II", "setting": "dog femoral vein", "value": 100, "unit": "%"}, {"measurement": "Effect on AII contraction", "setting": "[1]", "value": "decreased AII contraction"}, {"measurement": "Effect on pressor activity of angiotensin II", "setting": "rat hypertension model", "value": "inhibited the pressor activity of angiotensin II"}]}]}
